Laboratory results taken from patent publication US9708314B2, “Heterocyclic amide compound” (NISSAN CHEMICAL INDUSTRIES, LTD., priority 2013, dated 2017).

Assays:
Type in all cases: in vivo
[1] = system: Echinochloa oryzacola Vasing.; test: Test Example 1: herbicidal activity, application before weed generation in submerged conditions; conditions: Application herbicide amount 320 g/ha; Seventeenth Table
Outline: (§1)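 Water-diluted emulsion formulation is applied onto flood water (4 cm deep) covering alluvial soil on the day weed seeds are sown, after transplanting 2.5 leaf stage rice. Rates are expressed per hectare. Injury or control is graded 0–5 three weeks later.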

Monochoria vaginalis = test: as above; conditions: Application herbicide amount 320 g/ha; Seventeenth Table
Outline: as §1

Scirpus juncoides = test: as above; conditions: Application herbicide amount 320 g/ha; Seventeenth Table
Outline: as §1

Abutilon theophrasti = test: Test Example 4: herbicidal effect by application to foliage (diluvial soil, plastic box); conditions: application to foliage, application herbicide amount 320 g/ha
Outline: (§2)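 Greenhouse plants (25° C. to 30° C., 14 d, diluvial soil) receive a foliar spray of water-diluted emulsifiable formulation at defined g/ha. Grading after 3 weeks uses a six-step herbicidal-ratio scale, with 4 covering 70% to <90% and 1 covering 5% to <20%.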

Alopecurus myosuroides = test: as above; conditions: application to foliage, application herbicide amount 320 g/ha
Outline: as §2

Apera spica-venti. = test: as above; conditions: application to foliage, application herbicide amount 320 g/ha
Outline: as §2

Avena fatua = test: as above; conditions: application to foliage, application herbicide amount 320 g/ha
Outline: as §2

Chenopodium album = test: as above; conditions: application to foliage, application herbicide amount 320 g/ha
Outline: as §2

Digitaria ciliaris = test: as above; conditions: application to foliage, application herbicide amount 320 g/ha
Outline: as §2

[2] = system: Echinochloa crus-galli var. crus-galli; test: as above; conditions: application to foliage, application herbicide amount 320 g/ha
Outline: as §2

Galium spurium = test: as above; conditions: application to foliage, application herbicide amount 320 g/ha
Outline: as §2

Lolium multiflorum Lam. = test: as above; conditions: application to foliage, application herbicide amount 320 g/ha
Outline: as §2

Setaria viridis = test: as above; conditions: application to foliage, application herbicide amount 320 g/ha
Outline: as §2

Veronica persica = test: as above; conditions: application to foliage, application herbicide amount 320 g/ha
Outline: as §2

SMILES | A: Echinochloa oryzicola Vasing. (herbicidal effect grade) [1] | C: Monochoria vaginalis (herbicidal effect grade) (Monochoria vaginalis) | B: Scirpus juncoides (herbicidal effect grade) (Scirpus juncoides) | M (Abutilon theophrasti) herbicidal effect (Abutilon theophrasti) | J (Alopecurus myosuroides) herbicidal effect (Alopecurus myosuroides) | L (Apera spica-venti.) herbicidal effect (Apera spica-venti.) | I (Avena fatua) herbicidal effect (Avena fatua) | O (Chenopodium album) herbicidal effect (Chenopodium album) | F (Digitaria ciliaris) herbicidal effect (Digitaria ciliaris) | H (Echinochloa crus-galli var. crus-galli) herbicidal effect [2] | Q (Galium spurium) herbicidal effect (Galium spurium) | K (Lolium multiflorum Lam.) herbicidal effect (Lolium multiflorum Lam.) | G (Setaria viridis) herbicidal effect (Setaria viridis) | R (Veronica persica) herbicidal effect (Veronica persica)
Cc1nnc(NC(=O)c2ccc(C(F)(F)F)n3c(SC(C)C)nnc23)o1 [1-033] | 5 (Herbicidal ratio of 90% or more (almost completely withered)) | 3 (Herbicidal ratio of 40% or more and less than 70%) | 4 (Herbicidal ratio of 70% or more and less than 90%) | 5 (Herbicidal ratio of 90% or more (almost completely withered)) | 1 (Herbicidal ratio of 5% or more and less than 20%) | 2 (Herbicidal ratio of 20% or more and less than 40%) | 2 (Herbicidal ratio of 20% or more and less than 40%) | 5 (Herbicidal ratio of 90% or more (almost completely withered)) | 5 (Herbicidal ratio of 90% or more (almost completely withered)) | 5 (Herbicidal ratio of 90% or more (almost completely withered)) | 3 (Herbicidal ratio of 40% or more and less than 70%) | 1 (Herbicidal ratio of 5% or more and less than 20%) | 5 (Herbicidal ratio of 90% or more (almost completely withered)) | 5 (Herbicidal ratio of 90% or more (almost completely withered))
CC[S+]([O-])c1nnc2c(C(=O)Nc3nnc(C)o3)ccc(C(F)(F)F)n12 (stereo not drawn) [1-034] | 4 (Herbicidal ratio of 70% or more and less than 90%) | 4 (Herbicidal ratio of 70% or more and less than 90%) | 4 (Herbicidal ratio of 70% or more and less than 90%) | 5 (Herbicidal ratio of 90% or more (almost completely withered)) | 1 (Herbicidal ratio of 5% or more and less than 20%) | 3 (Herbicidal ratio of 40% or more and less than 70%) | 3 (Herbicidal ratio of 40% or more and less than 70%) | 5 (Herbicidal ratio of 90% or more (almost completely withered)) | 5 (Herbicidal ratio of 90% or more (almost completely withered)) | 5 (Herbicidal ratio of 90% or more (almost completely withered)) | 3 (Herbicidal ratio of 40% or more and less than 70%) | 3 (Herbicidal ratio of 40% or more and less than 70%) | 5 (Herbicidal ratio of 90% or more (almost completely withered)) | 5 (Herbicidal ratio of 90% or more (almost completely withered))
Cc1nnc(NC(=O)c2ccc(C(F)(F)F)n3c([S+]([O-])C(C)C)nnc23)o1 (stereo not drawn) [1-035] | 5 (Herbicidal ratio of 90% or more (almost completely withered)) | 4 (Herbicidal ratio of 70% or more and less than 90%) | 4 (Herbicidal ratio of 70% or more and less than 90%) | 5 (Herbicidal ratio of 90% or more (almost completely withered)) | 2 (Herbicidal ratio of 20% or more and less than 40%) | 3 (Herbicidal ratio of 40% or more and less than 70%) | 2 (Herbicidal ratio of 20% or more and less than 40%) | 5 (Herbicidal ratio of 90% or more (almost completely withered)) | 5 (Herbicidal ratio of 90% or more (almost completely withered)) | 5 (Herbicidal ratio of 90% or more (almost completely withered)) | 2 (Herbicidal ratio of 20% or more and less than 40%) | 2 (Herbicidal ratio of 20% or more and less than 40%) | 5 (Herbicidal ratio of 90% or more (almost completely withered)) | 5 (Herbicidal ratio of 90% or more (almost completely withered))
Cc1nnc(NC(=O)c2ccc(C(F)(F)F)n3c(C[S+](C)[O-])nnc23)o1 (stereo not drawn) [1-036] | 4 (Herbicidal ratio of 70% or more and less than 90%) | 3 (Herbicidal ratio of 40% or more and less than 70%) | 3 (Herbicidal ratio of 40% or more and less than 70%) | 5 (Herbicidal ratio of 90% or more (almost completely withered)) | 3 (Herbicidal ratio of 40% or more and less than 70%) | 4 (Herbicidal ratio of 70% or more and less than 90%) | 4 (Herbicidal ratio of 70% or more and less than 90%) | 5 (Herbicidal ratio of 90% or more (almost completely withered)) | 5 (Herbicidal ratio of 90% or more (almost completely withered)) | 5 (Herbicidal ratio of 90% or more (almost completely withered)) | 4 (Herbicidal ratio of 70% or more and less than 90%) | 3 (Herbicidal ratio of 40% or more and less than 70%) | 5 (Herbicidal ratio of 90% or more (almost completely withered)) | 5 (Herbicidal ratio of 90% or more (almost completely withered))
Cc1nnc(NC(=O)c2ccc(C(F)(F)F)n3c(CS(C)(=O)=O)nnc23)o1 [1-037] | 0 (Herbicidal ratio of 5% or less (almost no effect)) | 3 (Herbicidal ratio of 40% or more and less than 70%) | 2 (Herbicidal ratio of 20% or more and less than 40%) | 5 (Herbicidal ratio of 90% or more (almost completely withered)) | 2 (Herbicidal ratio of 20% or more and less than 40%) | 3 (Herbicidal ratio of 40% or more and less than 70%) | 3 (Herbicidal ratio of 40% or more and less than 70%) | 5 (Herbicidal ratio of 90% or more (almost completely withered)) | 5 (Herbicidal ratio of 90% or more (almost completely withered)) | 4 (Herbicidal ratio of 70% or more and less than 90%) | 4 (Herbicidal ratio of 70% or more and less than 90%) | 2 (Herbicidal ratio of 20% or more and less than 40%) | 4 (Herbicidal ratio of 70% or more and less than 90%) | 5 (Herbicidal ratio of 90% or more (almost completely withered))
Cc1nnc(NC(=O)c2ccc(C(F)(F)F)n3c(C[S+]([O-])CC(F)(F)F)nnc23)o1 (stereo not drawn) [1-038] | 2 (Herbicidal ratio of 20% or more and less than 40%) | 1 (Herbicidal ratio of 5% or more and less than 20%) | 2 (Herbicidal ratio of 20% or more and less than 40%) | 5 (Herbicidal ratio of 90% or more (almost completely withered)) | 1 (Herbicidal ratio of 5% or more and less than 20%) | 2 (Herbicidal ratio of 20% or more and less than 40%) | 3 (Herbicidal ratio of 40% or more and less than 70%) | 5 (Herbicidal ratio of 90% or more (almost completely withered)) | 5 (Herbicidal ratio of 90% or more (almost completely withered)) | 5 (Herbicidal ratio of 90% or more (almost completely withered)) | 3 (Herbicidal ratio of 40% or more and less than 70%) | 1 (Herbicidal ratio of 5% or more and less than 20%) | 5 (Herbicidal ratio of 90% or more (almost completely withered)) | 5 (Herbicidal ratio of 90% or more (almost completely withered))
